Numbers after ± are expanded uncertainties.

This is an account of results in the NIST ThermoML archive (doi:10.1016/j.jct.2015.09.029).

Data set [1] in a line: mn = molality of the nth substance listed, in mol/kg. The note with it: 100 kPa, Liquid; for viscosity: Capillary tube (Ostwald / Ubbelohde) method; for speed of sound: Frequency=2 MHz, Linear variable-path acoustic interferometer.
The conditions of data set [2]: 100 kPa, Liquid, Capillary tube (Ostwald / Ubbelohde) method.

In general, viscosity refers to the resistance of a fluid to flow. Regarding `CCCCn1cc[n+](C)c1.[Cl-]` [1-butyl-3-methylimidazolium chloride] + O, the viscosity in data set [1] (298.15 K, m1 = 0.0155) worked out at 0.8976 ± 0.019 mPa·s; in data set [1] (298.15 K, m1 = 0.0257), 0.9023 ± 0.019 mPa·s; in data set [1] (298.15 K, m1 = 0.0567) it was 0.9166 ± 0.019 mPa·s; in data set [1] (298.15 K, m1 = 0.0653), 0.9205 ± 0.019 mPa·s; in data set [1] (298.15 K, m1 = 0.0782), 0.9265 ± 0.019 mPa·s; in data set [1] (298.15 K, m1 = 0.0895), 0.9317 ± 0.019 mPa·s. In addition, the viscosity is listed as 0.933 ± 0.019 mPa·s in data set [1] (298.15 K, m1 = 0.0923); 0.9389 ± 0.02 mPa·s in data set [1] (298.15 K, m1 = 0.1052); 0.9422 ± 0.02 mPa·s in data set [1] (298.15 K, m1 = 0.1123).

`O` [water]: the viscosity in data set [2] (298.15 K) came to 0.8905 ± 0.019 mPa·s; in data set [2] (303.15 K), 0.7977 ± 0.017 mPa·s; in data set [2] (308.15 K) it was 0.7195 ± 0.015 mPa·s; in data set [2] (313.15 K), 0.6532 ± 0.014 mPa·s.

The term speed of sound denotes the propagation velocity of pressure waves in the medium. Consider `O` [water] + CC(C)C[P+](C)(CC(C)C)CC(C)C.Cc1ccc(S(=O)(=O)[O-])cc1, for which the viscosity in data set [1] (298.15 K, m2 = 0) is given as 0.8905 ± 0.019 mPa·s; in data set [1] (303.15 K, m2 = 0), 0.7977 ± 0.017 mPa·s; in data set [1] (308.15 K, m2 = 0), 0.7195 ± 0.015 mPa·s; in data set [1] (313.15 K, m2 = 0) it was 0.6532 ± 0.014 mPa·s. The speed of sound came to 1497.6 ± 4.3 m/s in data set [1] (298.15 K, m2 = 0) and 1528.5 ± 4.3 m/s in data set [1] (313.15 K, m2 = 0).

As for `O` [water] + CCCC[P+](C)(CCCC)CCCC.COS(=O)(=O)[O-], the viscosity in data set [1] (298.15 K, m2 = 0) is listed as 0.8905 ± 0.019 mPa·s; in data set [1] (303.15 K, m2 = 0) it was 0.7977 ± 0.017 mPa·s; in data set [1] (308.15 K, m2 = 0), 0.7195 ± 0.015 mPa·s; in data set [1] (313.15 K, m2 = 0), 0.6532 ± 0.014 mPa·s. Besides, the speed of sound in data set [1] (298.15 K, m2 = 0) worked out at 1497.6 ± 4.3 m/s; in data set [1] (313.15 K, m2 = 0), 1528.5 ± 4.3 m/s.

In the case of `O` [water] + CCCC[P+](CCCC)(CCCC)CCCC.[Cl-], the viscosity was found to be 0.8905 ± 0.019 mPa·s in data set [1] (298.15 K, m2 = 0); 0.7977 ± 0.017 mPa·s in data set [1] (303.15 K, m2 = 0); 0.7195 ± 0.015 mPa·s in data set [1] (308.15 K, m2 = 0); 0.6532 ± 0.014 mPa·s in data set [1] (313.15 K, m2 = 0). The speed of sound in data set [1] (298.15 K, m2 = 0) was 1497.6 ± 4.3 m/s; in data set [1] (313.15 K, m2 = 0), 1528.5 ± 4.3 m/s.

Take `O` [water] + CCCCn1cc[n+](C)c1.[Cl-]: the viscosity in data set [1] (298.15 K, m2 = 0) turned out to be 0.8905 ± 0.019 mPa·s.
